# Measurements reported in patent US20210254272A1, “TEXTILES HAVING ANTIMICROBIAL PROPERTIES” (Livinguard AG, priority 2015, published 2021).
# Assay: Leaching test: 100 g fabric soaked in 10 liters stagnant distilled water, 3 days (72 hours)
# Type: physicochemical
# Outline: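 Test and control fabrics were soaked together in a closed jar. Leached substances in the water were then determined by standard analytical methods.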
substance,measurement,setting,value
polyglucosamine [chitosan],Leaching of active ingredients (in ppm),"0.2% each in mixture (o.w.f), exhaust 80° C., 60 min, curing 180° C., 2 min, unwashed",9 ppm
same,Leaching of active ingredients (in ppm),"0.5% each in mixture (o.w.f), exhaust 80° C., 60 min, curing 180° C., 2 min, unwashed",12 ppm
same,Leaching of active ingredients (in ppm),"1.0% each in mixture (o.w.f), exhaust 80° C., 60 min, curing 180° C., 2 min, unwashed",16 ppm
same,Leaching of active ingredients (in ppm),"exhaust 60° C., solution dosage 1% o.w.f, process time 60 min",21 ppm
same,Leaching of active ingredients (in ppm),"exhaust 60° C., solution dosage 1% o.w.f, process time 90 min",13 ppm
same,Leaching of active ingredients (in ppm),"exhaust 60° C., solution dosage 1% o.w.f, process time 120 min",14 ppm
same,Leaching of active ingredients (in ppm),"exhaust 60° C., solution dosage 1% o.w.f, process time 180 min",12 ppm
same,Leaching of active ingredients (in ppm),"exhaust 60° C., solution dosage 1% o.w.f, process time 240 min",13 ppm
same,Leaching of active ingredients (in ppm),"exhaust 80° C., 1% o.w.f, 60 min, curing 170° C., curing dwell time 0.5 min",28 ppm
same,Leaching of active ingredients (in ppm),"exhaust 80° C., 1% o.w.f, 60 min, curing 170° C., curing dwell time 1.0 min",26 ppm
same,Leaching of active ingredients (in ppm),"exhaust 80° C., 1% o.w.f, 60 min, curing 170° C., curing dwell time 1.5 min",20 ppm
same,Leaching of active ingredients (in ppm),"exhaust 80° C., 1% o.w.f, 60 min, curing 170° C., curing dwell time 2.0 min",13 ppm
same,Leaching of active ingredients (in ppm),"exhaust 80° C., 1% o.w.f, 60 min, curing 170° C., curing dwell time 2.5 min",18 ppm
same,Leaching of active ingredients (in ppm),"exhaust 80° C., 1% o.w.f, 60 min, curing 170° C., curing dwell time 3.0 min",18 ppm
same,Leaching of active ingredients (in ppm),"exhaust 80° C., 1% o.w.f, 60 min, curing 180° C., curing dwell time 0.5 min",21 ppm
same,Leaching of active ingredients (in ppm),"exhaust 80° C., 1% o.w.f, 60 min, curing 180° C., curing dwell time 1.0 min",13 ppm
same,Leaching of active ingredients (in ppm),"exhaust 80° C., 1% o.w.f, 60 min, curing 180° C., curing dwell time 1.5 min",14 ppm
same,Leaching of active ingredients (in ppm),"exhaust 80° C., 1% o.w.f, 60 min, curing 180° C., curing dwell time 2.0 min",3 ppm
same,Leaching of active ingredients (in ppm),"exhaust 80° C., 1% o.w.f, 60 min, curing 180° C., curing dwell time 2.5 min",12 ppm
same,Leaching of active ingredients (in ppm),"exhaust 80° C., 1% o.w.f, 60 min, curing 180° C., curing dwell time 3.0 min",12 ppm
same,Leaching of active ingredients (in ppm),"exhaust 80° C., 1% o.w.f, 60 min, curing dwell time at 190° C. (title): 0.5 min",20 ppm
same,Leaching of active ingredients (in ppm),"exhaust 80° C., 1% o.w.f, 60 min, curing dwell time at 190° C. (title): 1.0 min",13 ppm
same,Leaching of active ingredients (in ppm),"exhaust 80° C., 1% o.w.f, 60 min, curing dwell time at 190° C. (title): 1.5 min",12 ppm
same,Leaching of active ingredients (in ppm),"exhaust 80° C., 1% o.w.f, 60 min, curing dwell time at 190° C. (title): 2.0 min",11 ppm
same,Leaching of active ingredients (in ppm),"exhaust 80° C., 1% o.w.f, 60 min, curing dwell time at 190° C. (title): 2.5 min",25 ppm
same,Leaching of active ingredients (in ppm),"exhaust 80° C., 1% o.w.f, 60 min, curing dwell time at 190° C. (title): 3.0 min",35 ppm
same,Leaching of active ingredients (in ppm),"exhaust 80° C., 60 min, dosage 1% o.w.f (test up to 5% o.w.f)",2 ppm
same,Leaching of active ingredients (in ppm),"exhaust 80° C., 60 min, dosage 2% o.w.f",17 ppm
same,Leaching of active ingredients (in ppm),"exhaust 80° C., 60 min, dosage 3% o.w.f",41 ppm
same,Leaching of active ingredients (in ppm),"exhaust 80° C., 60 min, dosage 4% o.w.f",42 ppm
same,Leaching of active ingredients (in ppm),"exhaust 80° C., 60 min, dosage 5% o.w.f",72 ppm
same,Leaching of active ingredients (in ppm),"exhaust 80 ° C., solution dosage 1% o.w.f, process time 10 min",37 ppm
same,Leaching of active ingredients (in ppm),"exhaust 80 ° C., solution dosage 1% o.w.f, process time 20 min",25 ppm
same,Leaching of active ingredients (in ppm),"exhaust 80 ° C., solution dosage 1% o.w.f, process time 30 min",21 ppm
same,Leaching of active ingredients (in ppm),"exhaust 80 ° C., solution dosage 1% o.w.f, process time 40 min",16 ppm
same,Leaching of active ingredients (in ppm),"exhaust 80 ° C., solution dosage 1% o.w.f, process time 50 min",12 ppm
same,Leaching of active ingredients (in ppm),"exhaust 80 ° C., solution dosage 1% o.w.f, process time 55 min",5 ppm
same,Leaching of active ingredients (in ppm),"exhaust 80 ° C., solution dosage 1% o.w.f, process time 60 min",3 ppm
same,Leaching of active ingredients (in ppm),"exhaust 80 ° C., solution dosage 1% o.w.f, process time 70 min",2 ppm
same,Leaching of active ingredients (in ppm),"exhaust 80 ° C., solution dosage 1% o.w.f, process time 80 min",5 ppm
same,Leaching of active ingredients (in ppm),"exhaust 80 ° C., solution dosage 1% o.w.f, process time 90 min",8 ppm
same,limit on the quantity of the agent that can be adhered to the textile in a non-leaching or substantially non-leaching manner,from Experimental examples I.1 and I.4,about 0.2 % o.w.f.
same,Leaching of active ingredient (in ppm),"solution dosage 0.10% o.w.f, exhaust temperature 60° C., process time 60 min",0 ppm
same,Leaching of active ingredient (in ppm),"solution dosage 0.10% o.w.f, exhaust temperature 65° C., process time 60 min",0 ppm
same,Leaching of active ingredient (in ppm),"solution dosage 0.10% o.w.f, exhaust temperature 70° C., process time 60 min",0 ppm
same,Leaching of active ingredient (in ppm),"solution dosage 0.10% o.w.f, exhaust temperature 75° C., process time 60 min",0 ppm
same,Leaching of active ingredient (in ppm),"solution dosage 0.10% o.w.f, exhaust temperature 80° C., process time 60 min",0 ppm
same,Leaching of active ingredient (in ppm),"solution dosage 0.10% o.w.f, exhaust temperature 85° C., process time 60 min",1 ppm
same,Leaching of active ingredient (in ppm),"solution dosage 0.10% o.w.f, exhaust temperature 90° C., process time 60 min",2 ppm
same,Leaching of active ingredient (in ppm),"solution dosage 0.10% o.w.f, exhaust temperature 95° C., process time 60 min",2 ppm
same,Leaching of active ingredient (in ppm),"solution dosage 0.20% o.w.f, exhaust temperature 60° C., process time 60 min",0 ppm
same,Leaching of active ingredient (in ppm),"solution dosage 0.20% o.w.f, exhaust temperature 65° C., process time 60 min",0 ppm
same,Leaching of active ingredient (in ppm),"solution dosage 0.20% o.w.f, exhaust temperature 70° C., process time 60 min",0 ppm
same,Leaching of active ingredient (in ppm),"solution dosage 0.20% o.w.f, exhaust temperature 75° C., process time 60 min",0 ppm
same,Leaching of active ingredient (in ppm),"solution dosage 0.20% o.w.f, exhaust temperature 80° C., process time 60 min",0 ppm
same,Leaching of active ingredient (in ppm),"solution dosage 0.20% o.w.f, exhaust temperature 85° C., process time 60 min",2 ppm
same,Leaching of active ingredient (in ppm),"solution dosage 0.20% o.w.f, exhaust temperature 90° C., process time 60 min",3 ppm
same,Leaching of active ingredient (in ppm),"solution dosage 0.20% o.w.f, exhaust temperature 95° C., process time 60 min",4 ppm
same,Leaching of active ingredient (in ppm),"solution dosage 0.50% o.w.f, exhaust temperature 60° C., process time 60 min",1 ppm
same,Leaching of active ingredient (in ppm),"solution dosage 0.50% o.w.f, exhaust temperature 65° C., process time 60 min",1 ppm
same,Leaching of active ingredient (in ppm),"solution dosage 0.50% o.w.f, exhaust temperature 70° C., process time 60 min",1 ppm
same,Leaching of active ingredient (in ppm),"solution dosage 0.50% o.w.f, exhaust temperature 75° C., process time 60 min",1 ppm
same,Leaching of active ingredient (in ppm),"solution dosage 0.50% o.w.f, exhaust temperature 80° C., process time 60 min",1 ppm
same,Leaching of active ingredient (in ppm),"solution dosage 0.50% o.w.f, exhaust temperature 85° C., process time 60 min",4 ppm
same,Leaching of active ingredient (in ppm),"solution dosage 0.50% o.w.f, exhaust temperature 90° C., process time 60 min",5 ppm
same,Leaching of active ingredient (in ppm),"solution dosage 0.50% o.w.f, exhaust temperature 95° C., process time 60 min",7 ppm
same,Leaching of active ingredient (in ppm),"solution dosage 0.80% o.w.f, exhaust temperature 60° C., process time 60 min",2 ppm
same,Leaching of active ingredient (in ppm),"solution dosage 0.80% o.w.f, exhaust temperature 65° C., process time 60 min",2 ppm
same,Leaching of active ingredient (in ppm),"solution dosage 0.80% o.w.f, exhaust temperature 70° C., process time 60 min",2 ppm
same,Leaching of active ingredient (in ppm),"solution dosage 0.80% o.w.f, exhaust temperature 75° C., process time 60 min",3 ppm
same,Leaching of active ingredient (in ppm),"solution dosage 0.80% o.w.f, exhaust temperature 80° C., process time 60 min",1 ppm
same,Leaching of active ingredient (in ppm),"solution dosage 0.80% o.w.f, exhaust temperature 85° C., process time 60 min",7 ppm
same,Leaching of active ingredient (in ppm),"solution dosage 0.80% o.w.f, exhaust temperature 90° C., process time 60 min",8 ppm
same,Leaching of active ingredient (in ppm),"solution dosage 0.80% o.w.f, exhaust temperature 95° C., process time 60 min",9 ppm
same,Leaching of active ingredient (in ppm),"solution dosage 1.00% o.w.f, exhaust temperature 60° C., process time 60 min",6 ppm
same,Leaching of active ingredient (in ppm),"solution dosage 1.00% o.w.f, exhaust temperature 65° C., process time 60 min",6 ppm
same,Leaching of active ingredient (in ppm),"solution dosage 1.00% o.w.f, exhaust temperature 70° C., process time 60 min",4 ppm
same,Leaching of active ingredient (in ppm),"solution dosage 1.00% o.w.f, exhaust temperature 75° C., process time 60 min",3 ppm
same,Leaching of active ingredient (in ppm),"solution dosage 1.00% o.w.f, exhaust temperature 80° C., process time 60 min",1.5 ppm
same,Leaching of active ingredient (in ppm),"solution dosage 1.00% o.w.f, exhaust temperature 85° C., process time 60 min",9 ppm
same,Leaching of active ingredient (in ppm),"solution dosage 1.00% o.w.f, exhaust temperature 90° C., process time 60 min",11 ppm
same,Leaching of active ingredient (in ppm),"solution dosage 1.00% o.w.f, exhaust temperature 95° C., process time 60 min",12 ppm
